Data: publication PMC10152663, “SEC14-GOLD protein PATELLIN2 binds IRON-REGULATED TRANSPORTER1 linking root iron uptake to vitamin E” (Plant Physiology, 2022)

Biological target: T1, PATELLIN2 (PATL2) (Arabidopsis thaliana, UniProt Q56ZI2)
T1 construct: Strep-tagged PATL2 (full length), recombinant from E. coli
T1 sequence (Q56ZI2 2-683): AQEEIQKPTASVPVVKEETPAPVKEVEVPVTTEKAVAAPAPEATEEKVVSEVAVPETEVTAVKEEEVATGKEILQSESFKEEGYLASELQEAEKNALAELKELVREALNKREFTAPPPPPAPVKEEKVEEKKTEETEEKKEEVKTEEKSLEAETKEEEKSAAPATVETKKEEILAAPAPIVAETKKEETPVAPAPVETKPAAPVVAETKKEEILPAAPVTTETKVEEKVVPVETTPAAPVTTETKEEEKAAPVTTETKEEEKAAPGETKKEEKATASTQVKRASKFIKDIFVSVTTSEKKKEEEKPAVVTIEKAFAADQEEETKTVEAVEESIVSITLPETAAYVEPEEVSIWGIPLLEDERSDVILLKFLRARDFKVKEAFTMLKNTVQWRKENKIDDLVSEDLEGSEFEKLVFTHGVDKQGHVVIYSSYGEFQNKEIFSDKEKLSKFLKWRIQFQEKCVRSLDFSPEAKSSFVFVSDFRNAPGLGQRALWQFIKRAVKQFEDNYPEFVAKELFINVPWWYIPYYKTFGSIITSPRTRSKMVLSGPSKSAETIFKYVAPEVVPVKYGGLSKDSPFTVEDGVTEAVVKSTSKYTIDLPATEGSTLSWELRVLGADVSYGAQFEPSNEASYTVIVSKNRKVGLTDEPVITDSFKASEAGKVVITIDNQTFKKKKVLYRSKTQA
Assay: spectrofluorimetric titration of NBD fluorescence with […] purified protein
Format: binding

Kd: 86 nM
Substance: NBD-α-tocopherol [NBD-Toc]
